The subject of one series is CT26 tumor. Nature of the series: Established CT26 tumor treatment in BALB/cJ mice (tumor volume, regression). Format: in vivo. Here is the method: (§1) BALB/cJ mice were inoculated subcutaneously with 1×10^6 CT26 cells, and C57BL/6 mice were inoculated subcutaneously with 0.5×10^6 MC38 cells. The mice were then randomized. Animal weights were monitored daily, and tumor volume was measured three times per week.
(§2) […] was defined as 100×[1−TVf,treated−TVi,treated)/(TVf,control−TVi,control)], where TVf is the average tumor volume at the end of study and TVi is the average tumor volume at the end initiation of treatment. In cases in which tumor regression occurred, percentage of tumor regression was defined as 100×[1−(TVf,treated/TVi,treated)]. At the completion of each study, the mice were killed by an anesthetic overdose, and tumor tissue was removed for further analysis.
Treatments were initiated when tumor volumes reached an average size of ˜60 mm^3. To treat an established CT26 or MC38 tumor, the animals were first assigned into groups, i.e., the control group receiving rat IgG2a isotype control, the group receiving the compound CFI-400945 monotherapy, the group receiving the rat IgG2a anti-PD-1 antibody monotherapy and the group receiving the combination therapy.
The compound CFI-400945 and the vehicle (water) were administered by oral gavage (PO), at one of the following dosages: (i) 6.5 mg/kg once daily (QD) for 21 days; (ii) 13 mg/kg twice a week (BIW or 2 on/5 off) for 21 days; (iii) 52 mg/kg once weekly (QW) for 21 days; and (iv) 104 mg/kg in two doses, i.e., on Days 0 and 14.
(§3) The anti-PD-1 antibody or the isotype control were administered by intraperitoneal (IP) injection. 150 μg anti-PD-1 antibody was administered in four doses, i.e., on Days 0, 3, 6 and 10.

The nature of series [1]: Tolerability in the CT26 tumor study (body weight, animal death). Format: in vivo. The method, then: as §1, §3
The test system of the next series is CT26 cells. Briefly: Re-challenge by inoculation with CT26 cells on Day 36 of animals with complete regression. Format: in vivo, BALB/cJ mice. The method, then:
Further to the tumor volume measurements, the animals in which complete regression had occurred as described above, either by CFI-400945 monotherapy or by IgG2a anti-PD-1 antibody-CFI-400945 combination therapy, were re-challenged by inoculation with CT26 cells on Day 36, as shown in FIGS. 1D (6.5 mg/kg QD CFI-400945+anti-PD-1 antibody), 1E (13 mg/kg BIW CFI-400945), 1F (13 mg/kg BIW CFI-400945+anti-PD-1 antibody), 1G (52 mg/kg QW CFI-400945), 1H (52 mg/kg QW CFI-400945+anti-PD-1 antibody) and 1J (104 mg/kg CFI-400945 on Days 0 and 14+anti-PD-1 antibody).

A further series has as its system MC38 tumor. Briefly: Established MC38 tumor treatment in C57BL/6 mice (tumor volume, regression). The class given is in vivo. The note with it: first batch of MC38 experiments; CFI-400945 6.5 mg/kg once daily for 21 days, alone (FIG. 2C) or with anti-PD-1 antibody 150 μg Days 0, 3, 6, 10 (FIG. 2D). Here is the method: as §1, §2
Treatments were initiated when tumor volumes reached an average size of ˜60 mm^3. To treat an established CT26 or MC38 tumor, the animals were first assigned into groups, i.e., the control group receiving rat IgG2a isotype control, the group receiving the compound CFI-400945 monotherapy, the group receiving the rat IgG2a anti-PD-1 antibody monotherapy and the group receiving the combination therapy. […]

The mark [2] stands for this setting: CFI-400945 104 mg/kg PO on Days 0 and 14.

SMILES strings stand for the structures.

Turning to `COc1ccc2c(c1)[C@]1(C[C@H]1c1ccc3c(/C=C/c4ccc(CN5C[C@@H](C)O[C@@H](C)C5)cc4)n[nH]c3c1)C(=O)N2` [CFI-400945], the “complete regression of CT26 tumors” value in the series with CT26 tumor (CFI-400945 6.5 mg/kg PO once daily for 21 days, alone (FIG. 1C) or with anti-PD-1 antibody 150 μg IP Days 0, 3, 6, 10 (FIG. 1D)) was “no instances in which complete regression was observed”. In the series on CT26 tumor (CFI-400945 6.5 mg/kg PO once daily for 21 days, single agent (FIG. 1C)), the CT26 tumor growth entry is given as “tumor growth delay”. The “CT26 tumors with regression” value with CT26 tumor (CFI-400945 13 mg/kg PO twice a week for 21 days, alone (FIG. 1E) or with anti-PD-1 antibody 150 μg IP Days 0, 3, 6, 10 (FIG. 1F)) is given as “one of the eight”; with CT26 tumor (CFI-400945 52 mg/kg PO once weekly for 21 days, alone (FIG. 1G) or with anti-PD-1 antibody 150 μg IP Days 0, 3, 6, 10 (FIG. 1H)), “one of the eight”. In addition, the tolerability of dosage entry in series [1] (CFI-400945 6.5 mg/kg PO daily for 21 days) was “well-tolerated”; in series [1] (CFI-400945 13 mg/kg PO twice a week for 21 days) it was “well-tolerated”; in series [1] (CFI-400945 52 mg/kg PO once weekly for 21 days), “well-tolerated”; in series [1] (setting [2]), “not be well-tolerated”. The “body weight loss or animal death” value in series [1] (CFI-400945 6.5 mg/kg PO daily for 21 days, data not shown) is recorded as “lack of any significant body weight loss (data not shown) or any animal death”. Further, in series [1] (setting [2]), the animals found dead result is “two”. Further, the “tumor growth after re-challenge with CT26 cells on Day 36” value is “tumors did not grow in any mouse” in the series on CT26 cells (animals with complete regression after CFI-400945 13 mg/kg BIW, alone (FIG. 1E) or + anti-PD-1 antibody (FIG. 1F)) and “tumors did not grow in any mouse” with CT26 cells (animals with complete regression after CFI-400945 52 mg/kg QW, alone (FIG. 1G) or + anti-PD-1 antibody (FIG. 1H)). Further, the “regression of MC38 tumors” value in the series with MC38 tumor is recorded as “Regression was also observed”.
